As a reminder, the IC50 is the concentration at which inhibition is half-maximal. In general, Km refers to the substrate concentration at which the rate is half of its maximum.

What all share (type): biochemical
For assay [1], the target named is T1, dipeptidyl peptidase I (DPPI) (Homo sapiens, UniProt P53634).
T1 construct: made in house; host or cells: Hi5 insect cells (baculovirus)
As to the kind of experiment: DPPI assay with label-free 20-mer peptide substrate, mass spectrometry (RapidFire, SIM), screening of test compounds. The note with it: for IC50: 20-mer peptide substrate (SEQ ID NO:1) 20 μM, about 2 nM DPPI, 27° C., 60 min, semi-log plot analysis, read-out: IC50 of DPPI inhibition; for effect on DPPI activity in the reaction with the 20-mer substrate: 20-mer peptide substrate, mass spectrometry. Here is the method:
(§1) FIG. 2. Evaluating the DPPI-modulating activity with two test compounds using a dipeptide substrate (A) and using a 20-mer peptide substrate (B). (A) About 0.4 nM of DPP1 and about 10 μM of dipeptide substrate GR-α-methylcoumarin were used in a rate-based format and monitored with fluorescence at EM=460 nm and EX=380 nm. (B) About 2 nM of DPPI and 20 μM of the 20-mer peptide substrate […] (SEQ ID NO:1) were used in a reaction and monitored with a mass spectrometry system. 2-(piperidin-1-ylcarbonyl)phenol is represented by solid squares and 2-(piperidin-1-ylcarbonyl)aniline is represented by solid circles. R^2-values is >0.95.
When a candidate compound is identified, the IC50 of the DPPI inhibition by the candidate compound is calculated using the formula (II):
[formula] wherein • Si is net substrate turnover signal of sample • So is net substrate turnover signal of positive control • Smin is net am signal of negative control • I is concentration of a candidate compound wherein a positive control is a reaction without any test compound and a negative control is a reaction without DPPI or substrate.
About 2 nM of DPPI was incubated with about 0.5, 1, 2, 4, 8, 16, 32, 64, 90, 128, 150 μM of the 20-mer substrate in the reaction buffer of 50 mM HEPES (pH 7.0), 100 mM NaCl, 0.005% Tween-20, and 2 mM of DTT or GSH. The reaction was incubated at about 27° C. and terminated with about 1/10 volume of 2% trifluoroacetic acid at multiple time points at 0, 2, 5, 10, 20, 30, 45, 60, 75, 90, and 120 mins. An aliquot of about 10 μl of the quenched reaction was used for detecting the substrate turnover by RapidFire (BioTrove, Woburn, Mass.) with a C4 cartridge. The reaction was loaded onto the cartridge, which was equilibrated with the stationary phase of 0.1% formic acid+0.02% TFA and developed with the mobile phase of 90% MeCN+0.1% formic acid+0.02% TFA at about 1 ml per min. The 20-mer substrate at SIM 1112 amu (atomic mass unit) and the corresponding 18-mer product at SIM 1019 were monitored using Agilent 1100 series LCMSD (Santa Clara, Calif.) in the positive ion mode monitoring.
Two fragment compounds, 2-(piperidin-1-ylcarbonyl)phenol and 2-(piperidin-1-ylcarbonyl)aniline were evaluated for their activity to modulate DPPI. A dilution series of the compounds of about 0.1 mM to about 100 mM was made in 100% DMSO. About one μl of a test compound and about 8 μl of about 3.75 nM DDP-1 were added to a 384-well polypropylene plate (Greiner Bio-One North America Inc., Monroe, N.C.). The proteolytic reaction was initiated by the addition of about 1 μl of 200 μM substrate. […] An aliquot of about 10 μl of the quenched reaction was analyzed by RapidFire™ as described in Examples 3 and 4.

For assay [2], the target named is T1, dipeptidyl peptidase I (DPPI). As to the kind of experiment: Rate-based DPPI assay with dipeptide substrate GR-alpha-methylcoumarin, fluorescence, test compounds. The following applies: dipeptide substrate GR-α-methylcoumarin about 10 μM, about 0.4 nM DPPI, compound up to 10 mM. Here is the method:
as §1
The DPPI activity was analyzed with either the dipeptide substrate, Gly-Arg, labeled with alpha-methylcoumarin (AMC), or the 20-mer peptide substrate of SEQ ID NO: 1. […] The fluorescence (Ex=380 nm, EM=460 nm) was monitored continuously from about 0 to 10 mins, using a Safire II (Tecan, Switzerland) to determine the DPPI activity. […]
Two fragment compounds, 2-(piperidin-1-ylcarbonyl)phenol and 2-(piperidin-1-ylcarbonyl)aniline were evaluated for their activity to modulate DPPI. […] An aliquot of about 10 μl of the quenched reaction was analyzed by RapidFire™ as described in Examples 3 and 4.

Assay [3] has the same target. In words: Initial velocity analysis of DPPI with the dipeptide substrate Gly-Arg-AMC, fluorescence. The following applies: dipeptide GR-AMC as DPPI substrate, about 0.4 nM DPPI, pH 7.0. Here is the method:
(§2) FIG. 1. Initial velocity analysis for DPP1 kinetic constant in reaction with a 20-mer substrate (A) and a dipeptide substrate (B). (A) About 2 nM of DPPI was used in the reaction with the 20-mer substrate of […] (SEQ ID NO:1) and the reaction was monitored using a mass spectrometry system. (B) About 0.4 nM of DPP1 was used in the reaction with the dipeptide substrate of GR-α-methylcoumarin and the reaction was monitored using a rate-based format monitoring fluorescence at EM=460 nm and EX=380 nm. Initial rates are taken from kinetic data where less than 7% substrate turnover was achieved.
(§3) Once the rate of the substrate turnover under the initial velocity condition, the kinetic constants for DPPI and the peptide substrate are calculated using the following formula (I): Y=VMAX((X+Et+KM)−((((Et+X+KM)^2)−(4XEt))^0.5))/(2Et) wherein • Y is concentration of substrate turnover • X is substrate concentration • Et is DPPI concentration • KM is substrate concentration at ½ VMAX • VMAX is substrate turnover at substrate saturation
The DPPI activity was analyzed with either the dipeptide substrate, Gly-Arg, labeled with alpha-methylcoumarin (AMC), or the 20-mer peptide substrate of SEQ ID NO: 1. For the dipeptide substrate, about 0.4 nM of DPPI was incubated with about 1, 2, 5, 10, 25, 50, 100, 150, 300, 600 μM of the dipeptide substrate in 10 ul of reaction buffer of 50 mM Hepes (pH 7.0), 100 mM NaCl, 0.005% Tween-20, and 2 mM of DTT or GSH. The fluorescence (Ex=380 nm, EM=460 nm) was monitored continuously from about 0 to 10 mins, using a Safire II (Tecan, Switzerland) to determine the DPPI activity. The condition for the 20-mer peptide substrate was the same as described above.

Assay [4] has the same target. As to the kind of experiment: Initial velocity analysis of DPPI with the 20-mer substrate, mass spectrometry. The following applies: 20-mer as DPPI substrate, about 2 nM DPPI, pH 7.0, about 27° C. Here is the method:
as §2, §3
About 2 nM of DPPI was incubated with about 0.5, 1, 2, 4, 8, 16, 32, 64, 90, 128, 150 μM of the 20-mer substrate in the reaction buffer of 50 mM HEPES (pH 7.0), 100 mM NaCl, 0.005% Tween-20, and 2 mM of DTT or GSH. […]

Residues, ends and D or L forms follow the SMILES beside them. No end group written: not given here. *: point of attachment. AMC = Cc1cc(=O)oc2cc(N*)ccc12

T1 sequence (P53634 25-134 limits assumed, species assumed): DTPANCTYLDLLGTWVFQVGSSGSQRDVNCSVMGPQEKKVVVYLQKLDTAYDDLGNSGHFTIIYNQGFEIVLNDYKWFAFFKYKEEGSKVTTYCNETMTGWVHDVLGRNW
T1 sequence (P53634 231-394 limits assumed, species assumed): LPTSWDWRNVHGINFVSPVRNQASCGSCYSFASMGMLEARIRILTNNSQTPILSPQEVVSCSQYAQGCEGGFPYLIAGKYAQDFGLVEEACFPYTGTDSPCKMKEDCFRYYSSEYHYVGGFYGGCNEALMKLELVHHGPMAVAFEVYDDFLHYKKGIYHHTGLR
T1 sequence (P53634 395-463 limits assumed, species assumed): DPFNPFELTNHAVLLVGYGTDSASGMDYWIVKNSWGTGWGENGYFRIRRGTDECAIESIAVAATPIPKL

Take `Nc1ccccc1C(=O)N1CCCCC1` [2-(piperidin-1-ylcarbonyl)aniline]: in assay [1], the IC50 was around 1000 µM and the “effect on DPPI activity in the reaction with the 20-mer substrate” value is recorded as “modulated the DPPI activity in a concentration dependent manner”. In assay [2], the “effect on DPPI activity in the reaction with the dipeptide substrate” value was “neither compound, even in high concentration of 10 mM, affected the DPPI activity”.

Regarding `O=C(c1ccccc1O)N1CCCCC1` [2-(piperidin-1-ylcarbonyl)phenol], in assay [1], the IC50 was around 100 µM and the “effect on DPPI activity in the reaction with the 20-mer substrate” value was “modulated the DPPI activity in a concentration dependent manner”. Moreover, the “effect on DPPI activity in the reaction with the dipeptide substrate” value in assay [2] is recorded as “neither compound, even in high concentration of 10 mM, affected the DPPI activity”.

Take `Cc1cc(=O)oc2cc(NC(=O)[C@H](CCCNC(=N)N)NC(=O)CN)ccc12` [Dipeptide, Gly-Arg, labeled with alpha-methylcoumarin (AMC)] (H-Gly-Arg-{AMC}): in assay [3], the “2nd order rate constant” value came to 1.48e+06 M⁻¹ s⁻¹, the Km was determined as 64 µM and the kcat is on record as 5667 Mmin^−1.

Regarding GEIIGGTECKPHSRPYMAYL [20-mer], the Km in assay [4] came out at 62 µM.
